In ChEMBL document CHEMBL1201862, “PubChem BioAssay data set” (2004):
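Interpolation was linear, between the two tested concentrations surrounding the appropriate level; five concentrations were tested over 48 hours in 96-well plates. Abbreviation: GI50, concentration required for 50% inhibition of growth.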 Active and inactive are the calls of the source. No stated cut-off is given here; in the data, active = GI50 up to about 1.1 µM and inactive = higher.

How the values were obtained:
Assay in all cases: NCI-60 cell line screen, 48 h
786-0 = test system: 786-0
A498 = test system: A498
A549 = test system: A549
ACHN = test system: ACHN
BT-549 = test system: BT-549
CAKI-1 = test system: CAKI-1
CCRF-CEM = test system: CCRF-CEM
COLO 205 = test system: COLO 205
DU-145 = test system: DU-145
EKVX = test system: EKVX
HCC 2998 = test system: HCC 2998
HCT-116 = test system: HCT-116
HCT-15 = test system: HCT-15
HL-60 = test system: HL-60
HOP-62 = test system: HOP-62
HOP-92 = test system: HOP-92
HT-29 = test system: HT-29
Hs-578T = test system: Hs-578T
IGROV-1 = test system: IGROV-1
K562 = test system: K562
KM12 = test system: KM12
LOX IMVI = test system: LOX IMVI
M14 = test system: M14
MCF7 = test system: MCF7
MDA-MB-231 = test system: MDA-MB-231
MDA-MB-435 = test system: MDA-MB-435
MDA-N = test system: MDA-N
MOLT-4 = test system: MOLT-4
Malme-3M = test system: Malme-3M
NCI-H226 = test system: NCI-H226
NCI-H460 = test system: NCI-H460
NCI-H522 = test system: NCI-H522
NCI/ADR-RES = test system: NCI/ADR-RES
OVCAR-3 = test system: OVCAR-3
OVCAR-4 = test system: OVCAR-4
OVCAR-5 = test system: OVCAR-5
OVCAR-8 = test system: OVCAR-8
PC-3 = test system: PC-3
RPMI-8226 = test system: RPMI-8226
RXF 393 = test system: RXF 393
SF-268 = test system: SF-268
SF-539 = test system: SF-539
SK-MEL-28 = test system: SK-MEL-28
SK-MEL-2 = test system: SK-MEL-2
SK-MEL-5 = test system: SK-MEL-5
SK-OV-3 = test system: SK-OV-3
SN12C = test system: SN12C
SNB-19 = test system: SNB-19
SNB-75 = test system: SNB-75
SR = test system: SR
SW-620 = test system: SW-620
T47D = test system: T47D
TK-10 = test system: TK-10
U-251 = test system: U-251
UACC-257 = test system: UACC-257
UACC-62 = test system: UACC-62
UO-31 = test system: UO-31
NCI-H23 = test system: NCI-H23
SF-295 = test system: SF-295

For `Cc1ccc2nnc(NS(=O)(=O)c3cc(C)c(Cl)cc3S)n2n1`, the GI50 (786-0) was > 100 µM (inactive), the GI50 (A498) was > 100 µM (inactive) and the GI50 (A549) was > 100 µM (inactive). For the same compound, the GI50 (ACHN) was > 100 µM (inactive), the GI50 (BT-549) was > 100 µM (inactive) and the GI50 (CAKI-1) was > 100 µM (inactive). The GI50 (CCRF-CEM) was > 100 µM (inactive), the GI50 (COLO 205) was > 100 µM (inactive) and the GI50 (DU-145) was > 100 µM (inactive). For the same compound, the GI50 (EKVX) was > 100 µM (inactive), the GI50 (HCC 2998) was > 100 µM (inactive) and the GI50 (HCT-116) was > 100 µM (inactive). The GI50 (HCT-15) was over 100 µM, the GI50 (HL-60) was > 100 µM (inactive) and the GI50 (HOP-62) was > 100 µM (inactive). The GI50 (HOP-92) was > 100 µM (inactive), the GI50 (HT-29) was > 100 µM (inactive) and the GI50 (Hs-578T) was > 100 µM (inactive). The GI50 (IGROV-1) was > 100 µM (inactive), the GI50 (K562) was > 100 µM (inactive) and the GI50 (KM12) was > 100 µM (inactive). The GI50 (LOX IMVI) was > 100 µM (inactive), the GI50 (M14) was > 100 µM (inactive) and the GI50 (MCF7) was > 100 µM (inactive). For the same compound, the GI50 (MDA-MB-231) was > 100 µM (inactive), the GI50 (MDA-MB-435) was > 100 µM (inactive) and the GI50 (MDA-N) was > 100 µM (inactive). For the same compound, the GI50 (MOLT-4) was > 100 µM (inactive), the GI50 (Malme-3M) was > 100 µM (inactive) and the GI50 (NCI-H226) was > 100 µM (inactive). The GI50 (NCI-H460) was > 100 µM (inactive), the GI50 (NCI-H522) was > 100 µM (inactive) and the GI50 (NCI/ADR-RES) was > 100 µM (inactive). For the same compound, the GI50 (OVCAR-3) was > 100 µM (inactive), the GI50 (OVCAR-4) was > 100 µM (inactive) and the GI50 (OVCAR-5) was > 100 µM (inactive). For the same compound, the GI50 (OVCAR-8) was > 100 µM (inactive), the GI50 (PC-3) was > 100 µM (inactive) and the GI50 (RPMI-8226) was > 100 µM (inactive). The GI50 (RXF 393) was > 100 µM (inactive), the GI50 (SF-268) was > 100 µM (inactive) and the GI50 (SF-539) was > 100 µM (inactive). For the same compound, the GI50 (SK-MEL-28) was > 100 µM (inactive), the GI50 (SK-MEL-2) was > 100 µM (inactive) and the GI50 (SK-MEL-5) was > 100 µM (inactive). For the same compound, the GI50 (SK-OV-3) was > 100 µM (inactive), the GI50 (SN12C) was > 100 µM (inactive) and the GI50 (SNB-19) was > 100 µM (inactive). For the same compound, the GI50 (SNB-75) was > 100 µM (inactive), the GI50 (SR) was > 100 µM (inactive) and the GI50 (SW-620) was > 100 µM (inactive). For the same compound, the GI50 (T47D) was > 100 µM (inactive), the GI50 (TK-10) was > 100 µM (inactive) and the GI50 (U-251) was > 100 µM (inactive). The GI50 (UACC-257) was > 100 µM (inactive), the GI50 (UACC-62) was > 100 µM (inactive) and the GI50 (UO-31) was 68.5 µM (inactive).

`Cc1cc(C)c2c(=O)n(CC(O)CN3CCN(c4ncccn4)CC3)sc2n1` (stereo not given) was tested, and the GI50 (786-0) was 14.5 µM (inactive), the GI50 (A498) was 17.4 µM (inactive) and the GI50 (A549) was 17.5 µM (inactive). The GI50 (ACHN) was 18.4 µM (inactive), the GI50 (BT-549) was 18.4 µM (inactive) and the GI50 (CAKI-1) was 20 µM (inactive). For the same compound, the GI50 (CCRF-CEM) was 5.79 µM (inactive), the GI50 (COLO 205) was 19 µM (inactive) and the GI50 (DU-145) was 16.6 µM (inactive). For the same compound, the GI50 (EKVX) was 16 µM (inactive), the GI50 (HCC 2998) was 18.9 µM (inactive) and the GI50 (HCT-116) was 15.6 µM (inactive). The GI50 (HCT-15) was 18.8 µM, the GI50 (HL-60) was 16.6 µM (inactive) and the GI50 (HOP-62) was 20.3 µM (inactive). For the same compound, the GI50 (HOP-92) was 29 µM (inactive), the GI50 (HT-29) was 16.1 µM (inactive) and the GI50 (Hs-578T) was 21.4 µM (inactive). The GI50 (IGROV-1) was 29.4 µM (inactive), the GI50 (K562) was 22.3 µM (inactive) and the GI50 (KM12) was 20.8 µM (inactive). The GI50 (LOX IMVI) was 17.1 µM (inactive), the GI50 (M14) was 15.7 µM (inactive) and the GI50 (MCF7) was 17.9 µM (inactive). For the same compound, the GI50 (MDA-MB-231) was 17.5 µM (inactive), the GI50 (MDA-MB-435) was 16.6 µM (inactive) and the GI50 (MDA-N) was 16 µM (inactive). The GI50 (MOLT-4) was 4 µM (inactive), the GI50 (Malme-3M) was 20.1 µM (inactive) and the GI50 (NCI-H226) was 96.8 µM (inactive). The GI50 (NCI-H23) was 17.7 µM (inactive), the GI50 (NCI-H460) was 17.5 µM (inactive) and the GI50 (NCI-H522) was 13 µM (inactive). For the same compound, the GI50 (NCI/ADR-RES) was 31 µM (inactive), the GI50 (OVCAR-3) was 19.4 µM (inactive) and the GI50 (OVCAR-4) was 18.6 µM (inactive). The GI50 (OVCAR-5) was 16.5 µM (inactive), the GI50 (OVCAR-8) was 19.2 µM (inactive) and the GI50 (PC-3) was 18.7 µM (inactive). The GI50 (RPMI-8226) was 4.71 µM (inactive), the GI50 (RXF 393) was 17.5 µM (inactive) and the GI50 (SF-268) was 18.6 µM (inactive). For the same compound, the GI50 (SF-295) was > 100 µM (inactive), the GI50 (SF-539) was 17.8 µM (inactive) and the GI50 (SK-MEL-28) was 17 µM (inactive). The GI50 (SK-MEL-2) was 18.7 µM (inactive), the GI50 (SK-MEL-5) was 20.5 µM (inactive) and the GI50 (SK-OV-3) was 18.7 µM (inactive). For the same compound, the GI50 (SN12C) was 17.8 µM (inactive), the GI50 (SNB-19) was 64.3 µM (inactive) and the GI50 (SNB-75) was 15.1 µM (inactive). For the same compound, the GI50 (SR) was 4.79 µM (inactive), the GI50 (SW-620) was 19.5 µM (inactive) and the GI50 (T47D) was 23.4 µM (inactive). For the same compound, the GI50 (TK-10) was 18.2 µM (inactive), the GI50 (U-251) was 17.8 µM (inactive) and the GI50 (UACC-257) was 16.7 µM (inactive). For the same compound, the GI50 (UACC-62) was 17.8 µM (inactive) and the GI50 (UO-31) was 16.4 µM (inactive).

`COc1cccc(-c2cc(O)c3cc(Cl)cnc3n2)c1` was tested, and the GI50 (786-0) was 0.102 µM (active), the GI50 (A498) was 0.131 µM (active) and the GI50 (A549) was 0.162 µM (active). The GI50 (ACHN) was 0.127 µM (active), the GI50 (BT-549) was 2.17 µM (inactive) and the GI50 (CAKI-1) was 0.0546 µM (active). For the same compound, the GI50 (CCRF-CEM) was 0.0484 µM (active), the GI50 (COLO 205) was 0.113 µM (active) and the GI50 (DU-145) was 0.358 µM (active). The GI50 (EKVX) was > 16.6 µM (inactive), the GI50 (HCC 2998) was 0.164 µM (active) and the GI50 (HCT-116) was 0.0469 µM (active). The GI50 (HCT-15) was 0.114 µM, the GI50 (HL-60) was 0.0211 µM (active) and the GI50 (HOP-62) was 0.0809 µM (active). For the same compound, the GI50 (HOP-92) was 0.469 µM (active), the GI50 (HT-29) was 0.0908 µM (active) and the GI50 (Hs-578T) was 0.0743 µM (active). The GI50 (IGROV-1) was 0.228 µM (active), the GI50 (K562) was 0.0419 µM (active) and the GI50 (KM12) was 0.0887 µM (active). For the same compound, the GI50 (LOX IMVI) was 0.0687 µM (active), the GI50 (M14) was 0.0443 µM (active) and the GI50 (MCF7) was 0.484 µM (active). For the same compound, the GI50 (MDA-MB-231) was 0.338 µM (active), the GI50 (MDA-MB-435) was 0.0155 µM (active) and the GI50 (MDA-N) was 0.0144 µM (active). The GI50 (MOLT-4) was 0.0991 µM (active), the GI50 (Malme-3M) was 2.25 µM (inactive) and the GI50 (NCI-H226) was 0.08 µM (active). The GI50 (NCI-H23) was 0.254 µM (active), the GI50 (NCI-H460) was 0.0783 µM (active) and the GI50 (NCI-H522) was 0.0577 µM (active). For the same compound, the GI50 (NCI/ADR-RES) was 0.0341 µM (active), the GI50 (OVCAR-3) was 0.0369 µM (active) and the GI50 (OVCAR-4) was 6.17 µM (inactive). The GI50 (OVCAR-5) was 1.33 µM (inactive), the GI50 (OVCAR-8) was 0.158 µM (active) and the GI50 (PC-3) was 0.065 µM (active). For the same compound, the GI50 (RPMI-8226) was 0.0378 µM (active), the GI50 (RXF 393) was 0.0698 µM (active) and the GI50 (SF-268) was 0.165 µM (active). For the same compound, the GI50 (SF-295) was 0.0687 µM (active), the GI50 (SF-539) was 0.0348 µM (active) and the GI50 (SK-MEL-28) was 0.0918 µM (active). For the same compound, the GI50 (SK-MEL-2) was 0.757 µM (active), the GI50 (SK-MEL-5) was 0.0495 µM (active) and the GI50 (SK-OV-3) was 0.152 µM (active). For the same compound, the GI50 (SN12C) was 0.143 µM (active), the GI50 (SNB-19) was 0.122 µM (active) and the GI50 (SNB-75) was 33.5 µM (inactive). For the same compound, the GI50 (SR) was 0.0292 µM (active), the GI50 (SW-620) was 0.0488 µM (active) and the GI50 (T47D) was 30.5 µM (inactive). For the same compound, the GI50 (TK-10) was 12.9 µM (inactive), the GI50 (U-251) was 0.0693 µM (active) and the GI50 (UACC-257) was 6.92 µM (inactive). The GI50 (UACC-62) was 0.0589 µM (active) and the GI50 (UO-31) was 0.313 µM (active).
